# “And” between values parts separate entries of the source, which are not always exact repeats. Identical values can stand only once. Like-named read-outs stand apart in the source and are kept apart here.
# Legend:
# INSR = INSR (Homo sapiens, UniProt P06213); experiment: SelectScreen kinase assay
# Protocol: (§1) Selectivity profiling assays were performed by the Invitrogen SelectScreen™ Services. […] The concentration of ATP was selected to be equal to the KM, unless indicated otherwise.
# MAP4K4 (HGK) = MAP4K4 (HGK) (Homo sapiens, UniProt O95819); experiment: SelectScreen kinase assay; details: 1 h, 1 μM WEL028, 1 h preincubation
# Protocol: as §1
# PIM1 = PIM1 (Homo sapiens, UniProt P11309); experiment: SelectScreen kinase assay; details: for Inhibition at 1 µM (%): PIM1, ZLYTE, ATP Km app
# PIM1, sequence (P11309 whole entry): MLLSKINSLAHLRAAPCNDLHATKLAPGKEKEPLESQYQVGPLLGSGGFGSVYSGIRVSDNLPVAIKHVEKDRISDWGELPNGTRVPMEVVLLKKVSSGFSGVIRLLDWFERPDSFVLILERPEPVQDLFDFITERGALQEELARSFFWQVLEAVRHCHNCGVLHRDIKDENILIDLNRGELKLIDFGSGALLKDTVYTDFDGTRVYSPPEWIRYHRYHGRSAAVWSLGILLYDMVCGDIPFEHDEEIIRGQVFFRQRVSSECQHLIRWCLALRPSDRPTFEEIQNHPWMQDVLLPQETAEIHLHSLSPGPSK
# Protocol: as §1
# MAPK14 (p38 alpha) = MAPK14 (p38 alpha) (Homo sapiens, UniProt Q16539); experiment: SelectScreen kinase assay
# MAPK14 (p38 alpha), sequence (Q16539 whole entry): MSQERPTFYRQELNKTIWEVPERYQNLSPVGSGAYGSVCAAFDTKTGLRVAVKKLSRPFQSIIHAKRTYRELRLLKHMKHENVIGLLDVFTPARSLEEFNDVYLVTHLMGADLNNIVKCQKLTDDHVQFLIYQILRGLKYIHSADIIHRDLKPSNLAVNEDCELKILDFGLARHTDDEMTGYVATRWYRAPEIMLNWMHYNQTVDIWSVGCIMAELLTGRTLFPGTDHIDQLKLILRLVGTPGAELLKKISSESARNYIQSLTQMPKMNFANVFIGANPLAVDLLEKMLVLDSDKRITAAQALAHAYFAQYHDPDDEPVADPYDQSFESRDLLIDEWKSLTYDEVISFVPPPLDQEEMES
# Protocol: as §1
# LIMK1 = LIMK1 (Homo sapiens, UniProt P53667); experiment: SelectScreen kinase assay
# LIMK1, sequence (P53667 whole entry): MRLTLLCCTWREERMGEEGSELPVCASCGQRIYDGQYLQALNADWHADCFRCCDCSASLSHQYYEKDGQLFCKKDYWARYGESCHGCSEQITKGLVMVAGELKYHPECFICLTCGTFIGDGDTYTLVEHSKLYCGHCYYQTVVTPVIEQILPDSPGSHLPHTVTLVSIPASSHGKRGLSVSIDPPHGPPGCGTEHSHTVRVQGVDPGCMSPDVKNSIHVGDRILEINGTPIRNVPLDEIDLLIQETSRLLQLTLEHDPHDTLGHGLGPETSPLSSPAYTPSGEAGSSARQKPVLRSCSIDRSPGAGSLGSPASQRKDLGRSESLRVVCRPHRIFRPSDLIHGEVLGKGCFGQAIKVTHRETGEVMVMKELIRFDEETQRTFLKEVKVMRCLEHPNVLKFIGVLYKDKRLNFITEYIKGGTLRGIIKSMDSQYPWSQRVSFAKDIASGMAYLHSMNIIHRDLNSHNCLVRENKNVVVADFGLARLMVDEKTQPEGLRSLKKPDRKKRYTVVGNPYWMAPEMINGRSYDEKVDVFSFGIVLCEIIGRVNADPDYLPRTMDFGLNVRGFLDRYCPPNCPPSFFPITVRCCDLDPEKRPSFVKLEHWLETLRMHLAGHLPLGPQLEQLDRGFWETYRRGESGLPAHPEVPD
# Protocol: as §1
# HIPK4 = biological target: T1, HIPK4 (Homo sapiens, UniProt Q8NE63); experiment: SelectScreen kinase assay
# T1 sequence (Q8NE63 1-616): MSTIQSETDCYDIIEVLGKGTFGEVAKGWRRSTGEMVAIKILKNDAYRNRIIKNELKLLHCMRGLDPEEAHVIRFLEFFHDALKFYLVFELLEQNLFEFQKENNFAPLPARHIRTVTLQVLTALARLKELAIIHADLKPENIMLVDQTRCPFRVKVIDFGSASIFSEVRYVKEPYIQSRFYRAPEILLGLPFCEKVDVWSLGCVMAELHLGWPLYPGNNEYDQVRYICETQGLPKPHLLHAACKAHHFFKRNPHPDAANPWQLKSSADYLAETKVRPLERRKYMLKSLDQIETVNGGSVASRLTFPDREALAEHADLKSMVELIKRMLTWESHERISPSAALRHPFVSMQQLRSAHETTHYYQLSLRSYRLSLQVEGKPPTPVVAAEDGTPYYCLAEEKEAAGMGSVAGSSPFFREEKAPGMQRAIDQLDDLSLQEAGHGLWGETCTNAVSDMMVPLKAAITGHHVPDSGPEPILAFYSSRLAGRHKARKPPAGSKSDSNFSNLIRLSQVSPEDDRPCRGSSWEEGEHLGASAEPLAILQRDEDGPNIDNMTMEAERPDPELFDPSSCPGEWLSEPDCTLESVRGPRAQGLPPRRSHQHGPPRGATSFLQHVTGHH
# Protocol: as §1
# CDK2/cyclin A1 = CDK2/cyclin A1 (Homo sapiens, UniProt P24941); experiment: SelectScreen kinase assay
# Protocol: as §1
# FES^S700C = FES^S700C (Homo sapiens, UniProt P07332, S700C); experiment: In vitro TR-FRET kinase assay; type: biochemical; set-up: human FES cDNA encoding residues 448–822 or human FER cDNA encoding residues 448–820 was amplified by PCR; made in house; host or cells: E. coli BL21(DE3), co-expressing YopH phosphatase; details: IC50 on FES^WT divided by IC50 on FES^S700C
# CSNK1A1 (CK1 alpha 1) = CSNK1A1 (CK1 alpha 1) (Homo sapiens, UniProt P48729); experiment: SelectScreen kinase assay
# CSNK1A1 (CK1 alpha 1), sequence (P48729 whole entry): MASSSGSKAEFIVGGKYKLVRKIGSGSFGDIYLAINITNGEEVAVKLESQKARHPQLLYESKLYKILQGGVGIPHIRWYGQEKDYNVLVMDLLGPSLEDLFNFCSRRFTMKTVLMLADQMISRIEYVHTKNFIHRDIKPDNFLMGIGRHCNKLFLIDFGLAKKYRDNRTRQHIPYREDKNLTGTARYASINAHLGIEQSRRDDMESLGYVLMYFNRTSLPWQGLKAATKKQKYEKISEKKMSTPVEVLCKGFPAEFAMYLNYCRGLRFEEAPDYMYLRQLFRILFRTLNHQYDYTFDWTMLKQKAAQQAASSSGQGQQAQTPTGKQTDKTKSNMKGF
# Protocol: as §1
# CAMK1D (CaMKI delta) = CAMK1D (CaMKI delta) (Homo sapiens, UniProt Q8IU85); experiment: SelectScreen kinase assay
# CAMK1D (CaMKI delta), sequence (Q8IU85 whole entry): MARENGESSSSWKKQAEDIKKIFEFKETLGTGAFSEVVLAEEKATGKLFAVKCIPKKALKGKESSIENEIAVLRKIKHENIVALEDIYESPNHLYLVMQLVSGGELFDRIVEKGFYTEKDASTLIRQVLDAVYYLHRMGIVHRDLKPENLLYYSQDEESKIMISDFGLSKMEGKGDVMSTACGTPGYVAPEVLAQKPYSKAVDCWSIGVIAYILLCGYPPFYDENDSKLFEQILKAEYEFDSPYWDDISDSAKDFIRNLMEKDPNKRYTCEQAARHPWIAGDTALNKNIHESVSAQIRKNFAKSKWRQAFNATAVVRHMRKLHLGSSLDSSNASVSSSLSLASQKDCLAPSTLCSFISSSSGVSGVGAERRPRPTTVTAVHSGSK
# Protocol: as §1
# TESK1 = TESK1 (Homo sapiens, UniProt Q15569); experiment: SelectScreen kinase assay
# TESK1, sequence (Q15569 whole entry): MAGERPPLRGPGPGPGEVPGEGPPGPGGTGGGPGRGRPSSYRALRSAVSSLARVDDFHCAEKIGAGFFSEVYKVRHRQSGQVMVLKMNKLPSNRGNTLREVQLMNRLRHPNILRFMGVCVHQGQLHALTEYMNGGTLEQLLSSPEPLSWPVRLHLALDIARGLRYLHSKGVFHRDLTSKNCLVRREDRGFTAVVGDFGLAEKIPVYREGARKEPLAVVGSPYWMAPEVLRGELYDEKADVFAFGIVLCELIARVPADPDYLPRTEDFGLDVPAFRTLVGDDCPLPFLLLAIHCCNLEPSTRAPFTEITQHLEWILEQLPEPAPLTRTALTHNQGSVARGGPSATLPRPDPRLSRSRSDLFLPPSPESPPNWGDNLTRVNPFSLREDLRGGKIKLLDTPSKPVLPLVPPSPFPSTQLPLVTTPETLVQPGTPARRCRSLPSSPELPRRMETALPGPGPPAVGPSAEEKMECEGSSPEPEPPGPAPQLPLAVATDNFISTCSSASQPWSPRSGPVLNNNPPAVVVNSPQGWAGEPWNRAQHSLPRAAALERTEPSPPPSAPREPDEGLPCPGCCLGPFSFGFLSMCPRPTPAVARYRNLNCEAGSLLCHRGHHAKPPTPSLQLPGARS
# Protocol: as §1
# FLT3 [1] = experiment: SelectScreen kinase assay; details: IC50 on that kinase divided by IC50 on FES^S700C
# Protocol: as §1
# FLT3 [2] = biological target: FLT3 (Homo sapiens, UniProt P36888); experiment: SelectScreen kinase assay
# FLT3 (Homo sapiens, UniProt P36888), sequence (P36888 27-993, species assumed): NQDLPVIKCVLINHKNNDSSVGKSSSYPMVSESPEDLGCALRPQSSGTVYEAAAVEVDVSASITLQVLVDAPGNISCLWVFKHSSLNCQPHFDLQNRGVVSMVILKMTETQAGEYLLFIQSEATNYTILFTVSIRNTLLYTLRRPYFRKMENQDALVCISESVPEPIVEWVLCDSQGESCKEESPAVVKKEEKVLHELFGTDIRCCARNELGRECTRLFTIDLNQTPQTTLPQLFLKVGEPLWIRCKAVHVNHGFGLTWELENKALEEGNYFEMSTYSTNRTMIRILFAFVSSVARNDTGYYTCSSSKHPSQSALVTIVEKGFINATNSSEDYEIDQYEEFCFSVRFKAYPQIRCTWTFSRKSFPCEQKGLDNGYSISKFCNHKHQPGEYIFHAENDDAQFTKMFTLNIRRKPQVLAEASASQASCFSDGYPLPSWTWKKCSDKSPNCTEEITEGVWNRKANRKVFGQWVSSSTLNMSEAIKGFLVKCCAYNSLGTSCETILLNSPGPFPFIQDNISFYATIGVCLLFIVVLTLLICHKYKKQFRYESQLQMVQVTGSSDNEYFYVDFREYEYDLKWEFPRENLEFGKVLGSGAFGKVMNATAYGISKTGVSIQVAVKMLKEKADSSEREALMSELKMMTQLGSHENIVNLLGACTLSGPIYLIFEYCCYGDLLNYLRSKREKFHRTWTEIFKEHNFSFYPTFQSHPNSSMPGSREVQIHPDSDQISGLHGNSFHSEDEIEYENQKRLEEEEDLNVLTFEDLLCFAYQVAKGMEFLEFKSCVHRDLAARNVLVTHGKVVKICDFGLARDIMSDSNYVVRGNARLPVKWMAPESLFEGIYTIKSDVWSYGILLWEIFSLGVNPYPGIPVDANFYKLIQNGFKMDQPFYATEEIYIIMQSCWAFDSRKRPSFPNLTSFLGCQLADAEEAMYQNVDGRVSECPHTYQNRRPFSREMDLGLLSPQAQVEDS
# Protocol: as §1
# FRAP1 (mTOR) = FRAP1 (mTOR) (Homo sapiens, UniProt P42345); experiment: SelectScreen kinase assay
# Protocol: as §1
# TNK1 = biological target: T2, TNK1 (Homo sapiens, UniProt Q13470); experiment: SelectScreen kinase assay
# T2 sequence (Q13470 1-666): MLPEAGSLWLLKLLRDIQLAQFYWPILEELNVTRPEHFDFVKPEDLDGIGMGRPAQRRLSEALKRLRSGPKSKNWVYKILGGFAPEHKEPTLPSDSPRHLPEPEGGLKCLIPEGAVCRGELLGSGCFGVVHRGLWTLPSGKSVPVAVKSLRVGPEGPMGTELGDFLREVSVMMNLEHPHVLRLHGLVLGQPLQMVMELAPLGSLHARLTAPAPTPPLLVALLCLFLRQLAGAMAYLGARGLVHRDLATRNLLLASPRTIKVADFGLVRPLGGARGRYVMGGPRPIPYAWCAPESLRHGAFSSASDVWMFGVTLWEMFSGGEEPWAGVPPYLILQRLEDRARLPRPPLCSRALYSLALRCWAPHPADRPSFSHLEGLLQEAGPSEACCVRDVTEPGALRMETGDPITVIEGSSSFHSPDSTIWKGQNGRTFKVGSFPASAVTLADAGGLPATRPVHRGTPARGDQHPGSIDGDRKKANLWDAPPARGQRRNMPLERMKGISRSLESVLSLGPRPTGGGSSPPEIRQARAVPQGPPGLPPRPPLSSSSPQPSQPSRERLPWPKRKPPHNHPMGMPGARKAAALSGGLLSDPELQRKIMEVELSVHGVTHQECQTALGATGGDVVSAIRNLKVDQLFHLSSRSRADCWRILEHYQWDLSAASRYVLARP
# Protocol: as §1
# PRKG2 (PKG2) = PRKG2 (PKG2) (Homo sapiens, UniProt Q13237); experiment: SelectScreen kinase assay
# Protocol: as §1
# [3] = read-out: Inhibition at 1 µM (%)
# [4] = 1 h, 1 μM WEL028, 1 h preincubation
# INSR, sequence (P06213 28-1382): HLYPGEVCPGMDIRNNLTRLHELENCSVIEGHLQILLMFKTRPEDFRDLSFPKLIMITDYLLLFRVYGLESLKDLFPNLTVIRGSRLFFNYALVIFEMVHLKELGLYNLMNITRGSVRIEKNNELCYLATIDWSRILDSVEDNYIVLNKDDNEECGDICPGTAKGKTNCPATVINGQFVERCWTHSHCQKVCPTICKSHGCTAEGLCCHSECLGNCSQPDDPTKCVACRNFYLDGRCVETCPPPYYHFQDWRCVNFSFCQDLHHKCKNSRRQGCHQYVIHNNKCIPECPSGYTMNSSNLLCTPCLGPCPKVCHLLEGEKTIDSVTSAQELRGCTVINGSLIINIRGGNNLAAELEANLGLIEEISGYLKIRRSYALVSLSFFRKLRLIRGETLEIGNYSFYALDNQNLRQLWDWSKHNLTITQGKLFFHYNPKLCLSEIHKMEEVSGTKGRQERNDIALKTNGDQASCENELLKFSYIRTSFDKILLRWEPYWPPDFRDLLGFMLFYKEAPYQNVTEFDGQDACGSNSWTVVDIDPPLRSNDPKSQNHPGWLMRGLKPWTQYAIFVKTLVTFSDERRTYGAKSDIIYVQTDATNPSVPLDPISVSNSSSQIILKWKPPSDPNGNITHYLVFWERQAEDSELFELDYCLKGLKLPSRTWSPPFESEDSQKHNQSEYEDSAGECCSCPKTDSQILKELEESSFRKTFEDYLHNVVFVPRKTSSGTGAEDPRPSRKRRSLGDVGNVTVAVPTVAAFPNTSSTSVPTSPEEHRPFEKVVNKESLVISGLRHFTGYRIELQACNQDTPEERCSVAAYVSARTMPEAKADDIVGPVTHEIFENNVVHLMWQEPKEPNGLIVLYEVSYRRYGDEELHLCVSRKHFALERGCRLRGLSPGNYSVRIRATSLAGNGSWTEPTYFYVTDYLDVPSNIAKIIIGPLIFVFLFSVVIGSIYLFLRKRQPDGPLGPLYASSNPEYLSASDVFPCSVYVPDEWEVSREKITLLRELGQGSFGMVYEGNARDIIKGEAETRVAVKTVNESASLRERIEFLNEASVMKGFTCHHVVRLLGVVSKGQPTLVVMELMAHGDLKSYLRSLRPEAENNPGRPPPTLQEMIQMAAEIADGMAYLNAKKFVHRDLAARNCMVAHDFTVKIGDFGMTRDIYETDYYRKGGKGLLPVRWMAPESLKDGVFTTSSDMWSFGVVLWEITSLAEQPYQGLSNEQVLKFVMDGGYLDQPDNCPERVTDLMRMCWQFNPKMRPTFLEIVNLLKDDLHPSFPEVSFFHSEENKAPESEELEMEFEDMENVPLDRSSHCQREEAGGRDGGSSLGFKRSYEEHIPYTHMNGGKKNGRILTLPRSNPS
smiles,measurement,setting,value
C#CCOc1ccc(Nc2ncc(Cl)c(Nc3ccccc3NC(=O)C=C)n2)c(OC)c1 [Compound 6],inhibition at 1 µM,INSR; 1 h,11%
same,inhibition at 1 µM,INSR; [3],11%
same,inhibition at 1 µM,MAP4K4 (HGK),7%
same,inhibition at 1 µM,PIM1; [4],-8%
same,Inhibition at 1 µM (%),PIM1,-11%
same,Inhibition at 1 µM (%),"PIM1; listed as WEL028, 1 µM",-5%
same,Inhibition (%),"MAPK14 (p38 alpha); 1 μM WEL028, 1 h preincubation",7%
same,Inhibition at 1 µM (%),"MAPK14 (p38 alpha); MAPK14 (p38 alpha) Direct, 1 µM, ZLYTE, ATP Km app, listed as WEL028, 1 µM",4% and 10%
same,inhibition at 1 µM,LIMK1; [4],14%
same,Inhibition at 1 µM (%),"LIMK1; LIMK1, 1 µM, LanthaScreen Binding, listed as WEL028, 1 µM",12%
same,inhibition at 1 µM,"LIMK1; read-out: Inhibition at 1 µM (%), LIMK1, 1 µM, LanthaScreen Binding",16%
same,inhibition at 1 µM,HIPK4; [4],14%
same,Inhibition at 1 µM (%),"HIPK4; HIPK4, 1 µM, ZLYTE, ATP Km app, listed as WEL028, 1 µM",16%
same,inhibition at 1 µM,"HIPK4; read-out: Inhibition at 1 µM (%), HIPK4, 1 µM, ZLYTE, ATP Km app",12%
same,Inhibition (%),"CDK2/cyclin A1; 1 μM WEL028, 1 h preincubation",5%
same,Inhibition at 1 µM (%),"CDK2/cyclin A1; CDK2/cyclin A1, 1 µM, LanthaScreen Binding, listed as WEL028, 1 µM",7%
same,inhibition at 1 µM,"CDK2/cyclin A1; read-out: Inhibition at 1 µM (%), CDK2/cyclin A1, 1 µM, LanthaScreen Binding",4%
same,Apparent fold selectivity,FES^S700C,232 fold
same,inhibition at 1 µM,CSNK1A1 (CK1 alpha 1); [4],9%
same,Inhibition at 1 µM (%),"CSNK1A1 (CK1 alpha 1); CSNK1A1 (CK1 alpha 1), 1 µM, ZLYTE, ATP Km app, listed as WEL028, 1 µM",12%
same,inhibition at 1 µM,"CSNK1A1 (CK1 alpha 1); read-out: Inhibition at 1 µM (%), CSNK1A1 (CK1 alpha 1), 1 µM, ZLYTE, ATP Km app",6%
same,inhibition at 1 µM,CAMK1D (CaMKI delta); [4],6%
same,inhibition at 1 µM,"CAMK1D (CaMKI delta); read-out: Inhibition at 1 µM (%), CAMK1D (CaMKI delta), 1 µM, ZLYTE, ATP Km app",5%
same,Inhibition at 1 µM (%),"TESK1; 1 µM, LanthaScreen Binding, listed as WEL028, 1 µM",9%
same,inhibition at 1 µM,TESK1; [4],10%
same,inhibition at 1 µM,"TESK1; read-out: Inhibition at 1 µM (%), 1 µM, LanthaScreen Binding",10%
same,Apparent fold selectivity,FLT3 [1],718 fold
same,IC50,FLT3 [2],3.16 µM
same,inhibition at 1 µM,FLT3 [2]; [4],61%
same,Inhibition at 1 µM (%),"FLT3 [2]; FLT3, 1 µM, ZLYTE, ATP Km app, listed as WEL028, 1 µM",58%
same,inhibition at 1 µM,"FLT3 [2]; read-out: Inhibition at 1 µM (%), FLT3, 1 µM, ZLYTE, ATP Km app",64%
same,inhibition at 1 µM,FRAP1 (mTOR); [4],11%
same,Inhibition at 1 µM (%),"FRAP1 (mTOR); FRAP1 (mTOR), 1 µM, ZLYTE, ATP Km app",19%
same,Inhibition at 1 µM (%),"TNK1; 1 µM, ZLYTE, ATP Km app",41%
same,inhibition at 1 µM,TNK1; 1 h,41%
same,inhibition at 1 µM,TNK1; [3],41%
same,Inhibition at 1 µM (%),"PRKG2 (PKG2); 1 µM, ZLYTE, ATP Km app",13%
same,inhibition at 1 µM,PRKG2 (PKG2); [4],4%

# From paper PMC7316778 (Nature Communications, 2020)
